Assay results from patent US20160067246A1, “USE OF PHOSPHODIESTERASE 5A INHIBITORS FOR THE TREATMENT OF MUSCULAR DYSTROPHY” (CEDARS-SINAI MEDICAL CENTER, priority 2013, published 2016).
Values joined by “and” are separate entries in the source; they are usually repeats but may differ in a detail not shown here. Identical values can stand only once. Like-named read-outs stand apart in the source and are kept apart here.

Tests used:
Format in all cases: in vivo, human
[1] = Pharmacokinetic study and drug blood levels in boys with DMD; settings: for half-life: serum, oral, read-out: elimination half-life (converted)
Description: Serum blood samples for pharmacokinetic determinations were collected from patients at time 0-hr, 0.25-hr, 0.5-hr, 1-hr, 2-hr, 4-hr, 8-hr, and 24-hr following each treatment (sildenafil and tadalafil) and each dose (0.5 vs. 1.0 mg/kg). Blood levels were measured with high-performance liquid chromatography-tandem mass spectrometry (NMS Labs).
(§1) Patients received 0.5 mg/kg of oral sildenafil or tadalafil on day 1, followed by 1.0 mg/kg of sildenafil or tadalafil on day 2. Patients then crossed over 2 weeks later for the opposite drug. Experiments were performed 1 hour (sildenafil) or 3 hours (tadalafil) after oral treatment to match the experiment with the peak blood level. Patients were queried about potential side-effects throughout the study visit.

[2] = test system: boys with Duchenne muscular dystrophy (DMD); experiment: Functional sympatholysis (LBNP, NIR spectroscopy, rest vs handgrip) with PDE5 inhibition in DMD; settings: DMD
Description: Forearm muscle oxygenation was measured with near-infrared (NIR) spectroscopy, as previously described.^4B Briefly, optodes were placed over the belly of the flexor digitorum profundus, the main muscle recruited during handgrip. The optodes were housed in a customized flexible rubber casing, ensuring a fixed and invariant position of the optodes relative to each other, and was secured to the skin with adhesive. The optodes were covered with an optically dense, black vinyl sheet, to minimize interference from external light or loss of NIR transmitted light. The forearm was wrapped with an elastic bandage to minimize movement of the optodes.
Before each experiment, absorption and scattering coefficients were calibrated against an external standard. After each experiment, a cuff was inflated on the upper arm to supra-systolic pressure of 200 mmHg to establish the total labile signal (TLS, the difference between the baseline and nadir in muscle tissue oxygenation). Changes in forearm tissue oxygenation were expressed as a percentage of TLS.
Handgrip exercise was performed with a dynamometer (Smedley Hand Dynamometer modified by Stoelting). To determine maximal voluntary contraction (MVC), each subject was asked to grip the dynamometer as hard as possible. […] Subjects performed intermittent isometric handgrip (20 handgrips per minute, 50% duty cycle) at 20% MVC for 7 minutes.
The subjects lower body was enclosed in a negative pressure chamber to the level of the iliac crest as previously described.^9B The pressure of the chamber was measured by a Statham transducer (Gould Inc.). Lower body negative pressure (LBNP) at −20 mmHg simulates mild orthostatic stress (that is, transition from the supine to the seated position). This technique mainly unloads the cardiopulmonary baroreceptors, producing highly reproducible reflex increases in sympathetic vasoconstrictor drive to the skeletal muscle vasculature without changing systemic blood pressure.^9B
The subjects' lower body was enclosed in a negative pressure chamber to the level of the iliac crest as previously described. The pressure in the chamber was measured by a Statham transducer (Gould Inc.). Lower body negative pressure (LBNP) at −20 to −30 mmHg simulates mild orthostatic stress caused by transition from the supine to the seated position. This technique mainly unloads the low-pressure cardiopulmonary baroreceptors, producing highly reproducible reflex increases in sympathetic vasoconstrictor drive to the skeletal muscle vasculature without changing systemic blood pressure. To measure exercise-induced attenuation of reflex vasoconstriction (i.e., functional sympatholysis), the LBNP was (i) applied at rest, and then (ii) superimposed on mild rhythmic handgrip at 20% MVC. Reflex vasoconstriction was measured as the LBNP-induced decrease in forearm muscle oxygenation by NIR spectroscopy. Using the pressure inside the LBNP chamber as a trigger, the Powerlab software was programed to mean the HbO2+MbO2 signal for 20 seconds before the onset of LBNP and for 20 seconds before the offset of LBNP; the difference between these mean values was taken as the LBNP-induced change in forearm muscle tissue oxygenation (20). Blood pressure, heart rate, and handgrip force were also recorded in response to 2 minutes of LBNP applied at rest and during the third to fifth minutes of the 7-minute exercise protocol.
as §1, with “visit. […]” for “visit.”

[3] = test system: boys with Duchenne muscular dystrophy (DMD); experiment: Safety data / side-effects of PDE5 inhibitors in boys with DMD
Description: Subjects were studied in the supine position. Heart rate was measured continuously by electrocardiography, and blood pressure measured by automated oscillometric sphygomanometry using a child's cuff (Welch Allyn Vital Signs Monitor 300 Series).
as §1

[4] = 0.5 mg/kg oral, analysis of 10 of the 12 boys
[5] = 0.5 mg/kg oral, analysis using all 12 boys
[6] = 1.0 mg/kg oral, analysis of 10 of the 12 boys
[7] = 1.0 mg/kg oral, analysis using all 12 boys

CN1CC(=O)N2[C@H](c3ccc4c(c3)OCO4)c3[nH]c4ccccc4c3C[C@@H]2C1=O [tadalafil]
peak blood level ([1]; boys with DMD, 1.0 mg/kg oral): 492.5 ± 47.3 ng/mL | time of peak blood level after oral administration ([1]; boys with DMD, 0.5 and 1.0 mg/kg oral): 2 to 4 h | time the drug remained elevated in the blood ([1]; male, human, in vivo, po): up to 24 hours | half-life ([1]; male, human, boys with DMD, 0.5 mg/kg dose): 1490 ± 186 min | half-life ([1]; male, human, boys with DMD, 1.0 mg/kg dose): 2370 ± 396 min | attenuation of the reflex decrease in muscle oxygenation during handgrip [2, 4]: 45±8% | attenuation of the reflex decrease in muscle oxygenation during handgrip ([2]; 0.5 mg/kg oral, analysis using all 12 boys (NIR in 10)): 57±16% | LBNP-induced ΔHbO2+MbO2 (% TLS) at rest [2, 4]: −20±2% | LBNP-induced ΔHbO2+MbO2 (% TLS) at rest [2, 5]: −20±2% | LBNP-induced ΔHbO2+MbO2 (% TLS) during handgrip [2, 4]: −11±1% | LBNP-induced ΔHbO2+MbO2 (% TLS) during handgrip [2, 5]: −9±3% | attenuation of the reflex decrease in muscle oxygenation during handgrip [2, 6]: 63±5% | attenuation of the reflex decrease in muscle oxygenation during handgrip ([2]; 1.0 mg/kg oral, analysis using all 12 boys (NIR in 10)): 80±11% | LBNP-induced ΔHbO2+MbO2 (% TLS) at rest [2, 6]: −17±1% | LBNP-induced ΔHbO2+MbO2 (% TLS) at rest [2, 7]: −16±2% | LBNP-induced ΔHbO2+MbO2 (% TLS) during handgrip [2, 6]: −7±1% | LBNP-induced ΔHbO2+MbO2 (% TLS) during handgrip [2, 7]: −4±2% | duration of (penile) erection in an individual patient ([3]; higher dose 1.0 mg/kg): 4 h | duration of (penile) erection in an individual patient ([3]; low dose 0.5 mg/kg, 0.5 mg/kg): > 4 h and 3 h and 6 h
